From US7179829B2, “Substituted imidazolidines, process for their preparation, and their use as a medicament or diagnostic, and medicament comprising them” (Sanofi-aventis Deutschland GmbH, priority 2001, dated 2007)
Structures can show the parent of a compound that is named as a salt. Where two headings read alike, the source gives them in different places.

Columns and labels:
[1] = target: rNHE3 (Rattus norvegicus, UniProt P26433); assay: recovery of intracellular pH (pHi) after acidification, BCECF fluorescence; type: cell-based
Protocol: In this test, the recovery of the intracellular pH (pHi) after an acidification, which starts when the NHE is capable of functioning, even under bicarbonate-free conditions, was determined. For this purpose, the pHi was determined using the pH-sensitive fluorescent dye BCECF (calbiochem, the precursor BCECF-AM is employed). The cells were initially loaded with BCECF. The BCECF fluorescence was determined in a “ratio fluorescence spectrometer” (Photon Technology International, South Brunswick, N.J., USA) with excitation wavelengths of 505 and 440 nm and an emission wavelength of 535 nm, and was converted into the pHi using calibration plots. The cells were incubated in NH4Cl buffer (pH 7.4) (NH4Cl buffer: 115 mM NaCl, 20 mM NH4Cl, 5 mM KCl, 1 mM CaCl2, 1 mM MgSO4, 20 mM Hepes, 5 mM glucose, 1 mg/ml BSA; a pH of 7.4 is established with 1 M NaOH) even during the BCECF loading. The intracellular acidification was induced by addition of 975 μl of an NH4Cl-free buffer (see below) to 25 μl aliquots of the cells incubated in NH4Cl buffer. The subsequent rate of pH recovery was recorded in the case of NHE1 for two minutes, in the case of NHE2 for five minutes and in the case of NHE3 for three minutes. To calculate the inhibitory power of the tested substances, the cells were initially investigated in buffers in which complete or absolutely no pH recovery took place. For complete pH recovery (100%), the cells were incubated in Na^+-containing buffer (133.8 mM NaCl, 4.7 mM KCl, 1.25 mM CaCl2, 1.25 mM MgCl2, 0.97 mM Na2HPO4, 0.23 mM NaH2PO4, 5 mM Hepes, 5 mM glucose, a pH of 7.0 is established with 1 M NaOH). […] Recovery of the intracellular pH at the tested concentration of a substance was expressed as a percentage of the maximum recovery. Using the Sigma-Plot program, the IC50 value of the substance in question was calculated for the individual NHE subtypes using the percentages for pH recovery.

[2] = tested on: adrenergic alpha2 receptor; conditions: cited from earlier work
[3] = tested on: imidazoline I1 receptor; conditions: cited from earlier work
[4] = target: NHE3 (Oryctolagus cuniculus, UniProt P26432); conditions: cited from earlier work
[5] = pH recovery recorded for three minutes, read-out: IC50 [μM], (rNHE3)

Sequence of rNHE3 (P26433 29-831): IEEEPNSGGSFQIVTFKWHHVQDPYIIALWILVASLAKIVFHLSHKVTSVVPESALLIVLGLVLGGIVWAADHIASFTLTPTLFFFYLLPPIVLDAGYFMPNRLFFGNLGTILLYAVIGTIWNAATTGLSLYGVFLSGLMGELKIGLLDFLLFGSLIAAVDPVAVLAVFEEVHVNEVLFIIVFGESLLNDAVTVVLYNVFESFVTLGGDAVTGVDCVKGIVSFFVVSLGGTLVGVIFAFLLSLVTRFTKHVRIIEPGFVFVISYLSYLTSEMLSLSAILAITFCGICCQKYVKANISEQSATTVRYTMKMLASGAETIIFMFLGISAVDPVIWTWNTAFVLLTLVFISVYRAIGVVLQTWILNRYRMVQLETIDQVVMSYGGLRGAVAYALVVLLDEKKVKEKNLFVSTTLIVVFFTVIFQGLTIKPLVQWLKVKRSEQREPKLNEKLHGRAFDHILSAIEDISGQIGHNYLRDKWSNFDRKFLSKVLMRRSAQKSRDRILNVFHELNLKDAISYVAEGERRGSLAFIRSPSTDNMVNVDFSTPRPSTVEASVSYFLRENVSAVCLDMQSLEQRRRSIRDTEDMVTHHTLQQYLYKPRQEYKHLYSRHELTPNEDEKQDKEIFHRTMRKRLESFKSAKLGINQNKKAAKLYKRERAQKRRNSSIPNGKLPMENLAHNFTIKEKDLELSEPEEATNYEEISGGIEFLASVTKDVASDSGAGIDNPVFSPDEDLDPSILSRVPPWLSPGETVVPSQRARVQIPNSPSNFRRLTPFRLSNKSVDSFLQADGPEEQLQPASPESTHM
Sequence of NHE3 (P26432 30-832): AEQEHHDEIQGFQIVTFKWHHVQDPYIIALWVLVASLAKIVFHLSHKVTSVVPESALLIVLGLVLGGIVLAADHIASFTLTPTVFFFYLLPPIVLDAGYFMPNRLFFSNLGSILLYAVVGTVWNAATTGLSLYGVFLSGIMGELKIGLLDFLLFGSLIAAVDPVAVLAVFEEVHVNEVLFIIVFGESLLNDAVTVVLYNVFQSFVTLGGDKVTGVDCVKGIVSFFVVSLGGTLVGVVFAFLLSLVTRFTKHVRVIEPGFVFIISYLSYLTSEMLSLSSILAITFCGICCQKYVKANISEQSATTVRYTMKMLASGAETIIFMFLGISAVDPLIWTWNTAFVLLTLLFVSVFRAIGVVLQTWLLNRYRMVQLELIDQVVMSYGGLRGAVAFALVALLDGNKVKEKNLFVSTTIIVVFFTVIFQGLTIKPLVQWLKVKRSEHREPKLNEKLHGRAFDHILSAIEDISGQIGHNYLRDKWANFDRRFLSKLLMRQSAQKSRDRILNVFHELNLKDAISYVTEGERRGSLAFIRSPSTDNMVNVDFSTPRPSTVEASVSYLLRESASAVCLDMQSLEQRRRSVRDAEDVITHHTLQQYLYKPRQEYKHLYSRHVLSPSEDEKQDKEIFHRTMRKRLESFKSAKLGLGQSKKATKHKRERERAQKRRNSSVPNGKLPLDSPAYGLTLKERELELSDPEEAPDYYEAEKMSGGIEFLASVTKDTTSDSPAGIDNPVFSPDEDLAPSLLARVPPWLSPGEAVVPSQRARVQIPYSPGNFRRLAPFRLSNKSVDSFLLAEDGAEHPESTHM

| melting point | IC50 [1, 5] | SMILES | also measured |
| --- | --- | --- | --- |
|  | 1.1 µM | CC(C)[C@@H]1NC(=Nc2c(Cl)cccc2Cl)N[C@H]1C(C)C (racemic) [Example 7, trans-(2,6-Dichlorophenyl)-(4,5-diisopropylimidazolidin-2-ylidene)amine hydrochloride] |  |
| 160 to 165 °C | 19 µM | Cl.FC(F)(F)c1cccc(Cl)c1N=C1N[C@H]2CCCC[C@@H]2N1 (relative stereo) [Example 5, trans-(2-Chloro-6-trifluoromethylphenyl)-(octahydrobenzimidazol-2-ylidene)amine hydrochloride] |  |

Continued, compound first:

| SMILES | melting point | IC50 [1, 5] | also measured |
| --- | --- | --- | --- |
| Cl.c1ccc(Oc2ccccc2N=C2N[C@@H]3CCCC[C@H]3N2)cc1 | 110 °C |  |  |
| Clc1cccc(Cl)c1N=C1NCCN1 [Clonidine] |  |  | affinity for the adrenergic alpha2 receptor [2]: high affinity; affinity for the imidazoline I1 receptor [3]: high affinity |
| CC1NC(=Nc2c(Cl)cccc2Cl)NC1C (centres unmarked) [Example 12, (2,6-dichlorophenyl)-(4,5-dimethylimidazolidin-2-ylidene)amine nitric acid salt] |  |  | IC50 [1]: ~3 µM |
| CC(C)[C@@H](CC[C@@H](C)[C@H]1CC[C@H]2[C@@H]3[C@H](O)C[C@H]4C[C@@H](NCCCNCCCCN)CC[C@]4(C)[C@H]3CC[C@]12C)OS(=O)(=O)O [Squalamine] |  |  | time to maximum potency as NHE3 inhibitor [4]: reaches its maximum potency only after one hour |
